From ChEMBL document CHEMBL1201862, “PubChem BioAssay data set” (2004)
Each block holds one compound with its values, some of them ahead of it. Calls of active or inactive are those of the source.

How the values were obtained:
[1] = biological target: T1, Sentrin-specific protease 7 (Homo sapiens, UniProt Q9BQF6); type: functional;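 note: Luminescence-based dose-response confirmation of ultra-high-throughput screening hits, measuring inhibition of SENP7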
T1 sequence (Q9BQF6 whole entry): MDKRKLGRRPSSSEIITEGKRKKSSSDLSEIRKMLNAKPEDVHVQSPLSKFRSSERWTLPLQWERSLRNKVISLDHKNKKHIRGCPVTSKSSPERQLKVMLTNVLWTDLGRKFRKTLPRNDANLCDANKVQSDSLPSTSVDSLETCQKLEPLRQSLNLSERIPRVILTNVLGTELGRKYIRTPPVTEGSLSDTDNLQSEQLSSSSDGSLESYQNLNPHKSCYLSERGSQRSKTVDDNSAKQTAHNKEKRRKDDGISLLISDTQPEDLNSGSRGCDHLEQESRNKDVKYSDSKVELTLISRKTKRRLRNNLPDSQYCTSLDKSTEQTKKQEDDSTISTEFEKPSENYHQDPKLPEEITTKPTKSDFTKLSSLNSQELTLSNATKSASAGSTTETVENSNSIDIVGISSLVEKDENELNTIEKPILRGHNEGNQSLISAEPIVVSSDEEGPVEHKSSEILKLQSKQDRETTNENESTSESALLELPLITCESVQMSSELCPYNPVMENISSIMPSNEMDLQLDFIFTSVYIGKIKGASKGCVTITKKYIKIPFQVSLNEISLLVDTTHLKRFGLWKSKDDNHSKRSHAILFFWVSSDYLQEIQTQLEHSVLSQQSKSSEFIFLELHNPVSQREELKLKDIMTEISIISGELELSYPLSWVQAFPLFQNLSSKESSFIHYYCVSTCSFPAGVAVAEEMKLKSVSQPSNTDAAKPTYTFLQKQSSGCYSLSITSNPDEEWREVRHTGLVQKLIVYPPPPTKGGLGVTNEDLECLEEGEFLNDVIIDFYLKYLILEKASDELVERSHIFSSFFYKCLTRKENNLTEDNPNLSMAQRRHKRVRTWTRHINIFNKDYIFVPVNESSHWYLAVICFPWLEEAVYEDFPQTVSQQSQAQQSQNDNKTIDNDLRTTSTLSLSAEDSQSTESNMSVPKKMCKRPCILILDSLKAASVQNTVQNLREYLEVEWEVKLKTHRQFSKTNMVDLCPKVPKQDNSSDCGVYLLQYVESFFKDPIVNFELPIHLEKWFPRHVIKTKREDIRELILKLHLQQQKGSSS

[2] = biological target: T2, Sentrin-specific protease 6 (Homo sapiens, UniProt Q9GZR1); type: functional;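 note: Luminescence-based dose-response confirmatory assay of SENP6 inhibition, following up an ultra-high-throughput screen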
T2 sequence (Q9GZR1 whole entry): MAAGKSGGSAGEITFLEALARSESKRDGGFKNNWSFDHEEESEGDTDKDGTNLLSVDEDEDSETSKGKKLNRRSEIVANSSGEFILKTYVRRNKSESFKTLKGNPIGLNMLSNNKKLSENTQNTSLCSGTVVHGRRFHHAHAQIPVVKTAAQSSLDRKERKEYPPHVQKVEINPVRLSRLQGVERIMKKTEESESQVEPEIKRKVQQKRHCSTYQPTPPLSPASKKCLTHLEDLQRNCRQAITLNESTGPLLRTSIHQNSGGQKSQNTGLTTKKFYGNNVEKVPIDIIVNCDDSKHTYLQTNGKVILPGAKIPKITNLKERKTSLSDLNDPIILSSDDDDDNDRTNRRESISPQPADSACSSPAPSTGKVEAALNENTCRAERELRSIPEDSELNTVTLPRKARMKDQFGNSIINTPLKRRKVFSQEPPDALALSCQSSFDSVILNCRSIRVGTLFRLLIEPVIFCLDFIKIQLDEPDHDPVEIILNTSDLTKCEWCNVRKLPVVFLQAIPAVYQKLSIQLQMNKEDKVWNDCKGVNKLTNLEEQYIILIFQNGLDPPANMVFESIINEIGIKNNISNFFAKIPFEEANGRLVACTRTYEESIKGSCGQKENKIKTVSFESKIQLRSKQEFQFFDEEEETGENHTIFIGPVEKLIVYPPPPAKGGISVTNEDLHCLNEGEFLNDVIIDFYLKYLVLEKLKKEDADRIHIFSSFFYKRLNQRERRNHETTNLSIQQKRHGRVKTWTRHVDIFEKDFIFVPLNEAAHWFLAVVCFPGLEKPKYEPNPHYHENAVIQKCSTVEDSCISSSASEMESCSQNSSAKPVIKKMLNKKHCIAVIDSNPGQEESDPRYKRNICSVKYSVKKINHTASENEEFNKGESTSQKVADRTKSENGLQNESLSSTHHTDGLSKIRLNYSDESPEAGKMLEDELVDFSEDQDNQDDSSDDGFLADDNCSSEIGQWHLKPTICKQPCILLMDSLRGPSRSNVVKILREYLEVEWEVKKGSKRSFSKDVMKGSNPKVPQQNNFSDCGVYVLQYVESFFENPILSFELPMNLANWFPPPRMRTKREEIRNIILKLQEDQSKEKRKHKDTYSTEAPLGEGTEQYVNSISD

[3] = biological target: T3, Corticotropin-releasing factor receptor 2/Corticotropin-releasing factor-binding protein (Homo sapiens, UniProt P24387+Q13324); experiment: activators of CRF receptor 2 with binding protein – uHTS hits, confirmation (AID 602473); type: functional; settings: read-out: EC50_Mean
T3 sequence (Q13324 whole entry): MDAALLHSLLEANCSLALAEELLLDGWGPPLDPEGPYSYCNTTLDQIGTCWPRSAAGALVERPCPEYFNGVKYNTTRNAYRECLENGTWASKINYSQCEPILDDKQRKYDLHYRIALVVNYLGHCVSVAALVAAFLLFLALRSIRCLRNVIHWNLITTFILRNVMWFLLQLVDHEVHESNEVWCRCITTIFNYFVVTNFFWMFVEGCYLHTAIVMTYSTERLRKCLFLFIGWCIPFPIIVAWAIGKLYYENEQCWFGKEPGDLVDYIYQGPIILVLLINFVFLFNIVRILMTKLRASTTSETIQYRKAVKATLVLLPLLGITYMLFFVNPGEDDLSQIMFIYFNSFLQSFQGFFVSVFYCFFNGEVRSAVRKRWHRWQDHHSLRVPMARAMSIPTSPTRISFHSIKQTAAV
T3 sequence (P24387 whole entry): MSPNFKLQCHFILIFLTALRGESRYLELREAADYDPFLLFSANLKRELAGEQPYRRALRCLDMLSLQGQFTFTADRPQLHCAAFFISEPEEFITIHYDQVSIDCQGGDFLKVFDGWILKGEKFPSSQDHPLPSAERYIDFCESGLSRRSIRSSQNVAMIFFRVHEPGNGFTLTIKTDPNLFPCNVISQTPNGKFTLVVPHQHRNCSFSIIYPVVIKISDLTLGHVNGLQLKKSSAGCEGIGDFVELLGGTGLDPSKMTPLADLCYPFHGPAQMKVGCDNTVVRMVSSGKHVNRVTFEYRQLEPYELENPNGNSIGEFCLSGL

Caspase-3 = biological target: T4, Caspase-3 (Homo sapiens, UniProt P42574); type: functional;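 note: Dose-response selectivity test against caspase-3 for candidate inhibitors of sentrin-specific proteases (SENPs)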
T4 sequence (P42574 whole entry): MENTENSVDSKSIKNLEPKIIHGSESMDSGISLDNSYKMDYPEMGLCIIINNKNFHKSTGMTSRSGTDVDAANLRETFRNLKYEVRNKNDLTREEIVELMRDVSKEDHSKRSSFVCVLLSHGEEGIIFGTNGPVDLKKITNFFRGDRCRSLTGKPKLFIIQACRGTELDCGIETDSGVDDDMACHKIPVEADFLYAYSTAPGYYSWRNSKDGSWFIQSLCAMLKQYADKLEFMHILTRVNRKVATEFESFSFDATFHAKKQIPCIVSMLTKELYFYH

[4] = biological target: T3, Corticotropin-releasing factor receptor 2/Corticotropin-releasing factor-binding protein; experiment: Dose Response confirmation of uHTS hits for small molecule antagonists of the CRF-binding protein and CRF-R2 receptor complex.; type: functional; settings: read-out: IC50_Mean
[5] = biological target: T5, Sentrin-specific protease 8 (Homo sapiens, UniProt Q96LD8); type: functional;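 note: luminescence read-out of SENP8 inhibition, dose-response confirmation following an ultra-high-throughput screen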
T5 sequence (Q96LD8 whole entry): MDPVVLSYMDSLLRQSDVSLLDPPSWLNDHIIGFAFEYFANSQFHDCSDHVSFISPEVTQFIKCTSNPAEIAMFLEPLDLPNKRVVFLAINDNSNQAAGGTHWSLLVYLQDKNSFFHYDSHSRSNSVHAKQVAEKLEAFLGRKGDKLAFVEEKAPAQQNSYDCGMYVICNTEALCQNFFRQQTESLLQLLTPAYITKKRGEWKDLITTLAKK

[6] = blockers of CRF-binding protein–CRF-R2 complex – cell-based, uHTS hits, 384-well, dose response (AID 651639); type: functional, Homo sapiens; settings: read-out: IC50_Mean
[7] = NIH-3T3 fibroblast cytotoxicity, dose response, cytotoxicity control, cell-based, fluorescence, Alamar Blue, secondary assay (AID 2327); type: functional;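 note: NIH-3T3 mouse fibroblasts cultured with fluconazole at 8 µg/mL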
[8] = fluconazole-exposed Candida albicans growth modulators – fluorescence, retest, confirmation (AID 2467); type: functional, cell-based
Mu-type opioid receptor = Mu-type opioid receptor (Homo sapiens, UniProt P35372); type: functional, cell-based;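 note: U2OS cells with beta-arrestin recruitment to OPRM1 by beta-gal complementation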
[9] = biological target: 5-hydroxytryptamine receptor 2A (Mus musculus, UniProt P35363); type: functional, cell-based;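 note: CHO-K1 cells with tagged receptor and beta-arrestin; agonist potency measured as compound-induced activation of the receptor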
[10] = biological target: T6, Low molecular weight phosphotyrosine protein phosphatase (Homo sapiens, UniProt P24666); type: functional; settings: read-out: IC50_Mean
T6 sequence (P24666 whole entry): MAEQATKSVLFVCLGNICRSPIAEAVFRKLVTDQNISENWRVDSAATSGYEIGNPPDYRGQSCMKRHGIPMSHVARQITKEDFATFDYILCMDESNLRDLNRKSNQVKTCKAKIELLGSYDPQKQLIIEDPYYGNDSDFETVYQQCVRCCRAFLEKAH

[11] = biological target: T6, Low molecular weight phosphotyrosine protein phosphatase; type: functional; settings: read-out: IC50_Mean; remark: listed apart in the source
[12] = Counterscreen for inhibitors of Trypanosoma brucei methionyl tRNA synthetase (MetRS): Luminescence-based cell-based high throughput dose response assay to identify compounds that are cytotoxic to Jurkat human T lymphocyte cells.; type: functional
[13] = biological target: T7, Methionyl-tRNA synthetase, putative (Trypanosoma brucei brucei, UniProt Q38C91); type: functional, Trypanosoma brucei brucei strain 927/4 GUTat10.1
T7 sequence (Q38C91 whole entry): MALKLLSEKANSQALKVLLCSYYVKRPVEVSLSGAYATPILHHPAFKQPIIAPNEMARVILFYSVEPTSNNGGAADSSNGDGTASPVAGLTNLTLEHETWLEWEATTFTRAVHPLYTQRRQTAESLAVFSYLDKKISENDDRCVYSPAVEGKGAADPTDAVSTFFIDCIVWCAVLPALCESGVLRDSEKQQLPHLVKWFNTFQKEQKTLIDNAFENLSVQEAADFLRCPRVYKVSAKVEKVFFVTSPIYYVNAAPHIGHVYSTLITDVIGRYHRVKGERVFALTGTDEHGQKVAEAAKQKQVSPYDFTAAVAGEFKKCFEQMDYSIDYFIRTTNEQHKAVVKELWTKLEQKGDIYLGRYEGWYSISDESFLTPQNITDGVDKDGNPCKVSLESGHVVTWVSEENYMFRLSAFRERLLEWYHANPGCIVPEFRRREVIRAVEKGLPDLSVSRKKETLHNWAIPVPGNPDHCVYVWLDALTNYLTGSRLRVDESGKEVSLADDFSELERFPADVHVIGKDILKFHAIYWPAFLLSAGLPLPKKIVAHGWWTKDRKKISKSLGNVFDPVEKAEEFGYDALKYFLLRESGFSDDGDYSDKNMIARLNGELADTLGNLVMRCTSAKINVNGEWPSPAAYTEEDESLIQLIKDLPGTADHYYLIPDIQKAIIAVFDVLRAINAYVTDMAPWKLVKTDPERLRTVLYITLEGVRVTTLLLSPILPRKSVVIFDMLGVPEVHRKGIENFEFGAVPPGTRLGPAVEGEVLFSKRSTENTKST

[14] = biological target: T7, Methionyl-tRNA synthetase, putative; type: functional, Trypanosoma brucei brucei strain 927/4 GUTat10.1; remark: listed apart in the source

Chain of Mu-type opioid receptor (P35372 whole entry): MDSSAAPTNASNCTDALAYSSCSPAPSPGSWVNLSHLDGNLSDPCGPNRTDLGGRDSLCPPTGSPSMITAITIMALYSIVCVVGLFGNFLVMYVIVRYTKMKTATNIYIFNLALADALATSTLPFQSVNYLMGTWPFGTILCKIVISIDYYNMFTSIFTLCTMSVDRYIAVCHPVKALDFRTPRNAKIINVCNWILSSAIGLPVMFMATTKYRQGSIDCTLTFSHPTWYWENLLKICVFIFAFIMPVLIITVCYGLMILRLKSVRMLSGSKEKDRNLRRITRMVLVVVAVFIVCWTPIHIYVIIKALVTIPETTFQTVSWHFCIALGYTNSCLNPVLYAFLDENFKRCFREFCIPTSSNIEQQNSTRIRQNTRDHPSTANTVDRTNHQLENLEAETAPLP
Chain of 5-hydroxytryptamine receptor 2A (P35363 whole entry): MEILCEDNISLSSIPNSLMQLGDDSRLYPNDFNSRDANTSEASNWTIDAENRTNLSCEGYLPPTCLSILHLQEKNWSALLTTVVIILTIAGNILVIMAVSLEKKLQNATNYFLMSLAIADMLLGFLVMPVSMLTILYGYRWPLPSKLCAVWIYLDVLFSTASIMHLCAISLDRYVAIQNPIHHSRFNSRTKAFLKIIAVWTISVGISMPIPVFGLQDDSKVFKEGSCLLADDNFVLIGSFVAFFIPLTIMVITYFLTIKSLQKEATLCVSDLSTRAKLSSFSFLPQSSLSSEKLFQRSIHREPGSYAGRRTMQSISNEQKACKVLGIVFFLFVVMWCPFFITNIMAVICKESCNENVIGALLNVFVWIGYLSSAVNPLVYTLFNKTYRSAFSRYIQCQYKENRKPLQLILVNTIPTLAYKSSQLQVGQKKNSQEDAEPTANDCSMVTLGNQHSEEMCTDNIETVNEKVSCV

Structure (SMILES): Cc1ccc(SCC(=O)Nc2cc([N+](=O)[O-])ccc2O)cc1
IC50 [1]: 29.3 µM (active)
IC50 [2]: 25.6 µM (active)
EC50 [3]: 23.4 µM (active)
IC50 (Caspase-3): 17.9 µM (active)
IC50 [4]: 2.34 µM (active)
IC50 [5]: 31.3 µM (active)
IC50 [6]: 13.5 µM (active)
EC50 [7]: > 150 µM (inconclusive)
EC50 [8]: 46 nM (active)

EC50 (Mu-type opioid receptor): 92.5 µM (inactive)
EC50 [9]: 2.8 µM (active)
Structure (SMILES): COc1ccc(CN2CCN(C(=O)c3ccco3)CC2)cc1OC

EC50 (Mu-type opioid receptor): 92.5 µM (inactive)
EC50 [9]: 0.277 µM (active)
Structure (SMILES): Fc1cccc(CN2CCN(c3ncccn3)CC2)c1

IC50 [10]: 54.9 µM (inactive)
IC50 [11]: 13.1 µM (active)
Structure (SMILES): COc1ccc(Nc2nc(-c3ccc4c(c3)NC(=O)CO4)cs2)cc1

Structure (SMILES): COc1ccc(NC(=O)CC2C(=O)N(C)C(=S)N2CCc2ccc(F)cc2)cc1 (centres undefined)
IC50 [12]: 63.3 µM (inactive)
IC50 [13]: 17.4 µM (inactive)
IC50 [14]: 6.36 µM (active)

Structure (SMILES): O=C(Cc1cccc(Cl)c1)Nc1ccc(Br)cc1
IC50 [12]: 83.3 µM (inactive)
IC50 [13]: 11.1 µM (inactive)
IC50 [14]: 7.49 µM (active)

EC50 [3]: > 53 µM (inactive)
IC50 [4]: 7.25 µM (active)
IC50 [6]: > 20 µM (inactive)
Structure (SMILES): O=C1CC(c2ccccc2)SC(N(c2ccccc2)c2ccccc2)=N1 (centres undefined)

EC50 [3]: > 53 µM (inactive)
IC50 [4]: 4.32 µM (active)
IC50 [6]: 8.75 µM (active)
Structure (SMILES): Cc1ccc(NC(=O)COC(=O)CCc2c[nH]c3ccccc23)c(C)c1

IC50 [10]: 2.34 µM (active)
IC50 [11]: 11.5 µM (active)
Structure (SMILES): Cc1nccc(O)c1Cc1c(Cl)cccc1Cl
